# Structures can show the parent of a compound that is named as a salt.
# What was measured:
# Homo sapiens [1] = experiment: Unbound hepatobiliary clearance in human treated with dilitiazem at 120 mg, po; assay type: ADME, organism-based; conditions: in vivo
# Homo sapiens [2] = species on record: Homo sapiens; experiment: Unbound renal clearance in human treated with darifenacin; assay type: ADME, organism-based, Kidney; conditions: in vivo
# Homo sapiens [3] = species on record: Homo sapiens; experiment: Unbound hepatobiliary clearance in human treated with darifenacin; assay type: ADME, organism-based; conditions: in vivo
# [4] = Systemic clearance in human treated with propranolol; assay type: ADME, organism-based; conditions: in vivo
# Homo sapiens [5] = species on record: Homo sapiens; experiment: Unbound hepatobiliary clearance in human treated with propranolol; assay type: ADME, organism-based; conditions: in vivo
# [6] = Fraction unbound in human treated with propranolol; assay type: ADME, organism-based; conditions: in vivo
# Homo sapiens [7] = species on record: Homo sapiens; experiment: Unbound renal clearance in human treated with propranolol; assay type: ADME, organism-based, Kidney; conditions: in vivo
# Homo sapiens [8] = experiment: Unbound hepatobiliary clearance in healthy human treated with chlorpromazine at 10 mg, iv bolus dose and 25, 50 and 100 mg, po; assay type: ADME, organism-based; conditions: in vivo
# [9] = Fraction unbound in healthy human treated with chlorpromazine at 10 mg, iv bolus dose and 25, 50 and 100 mg, po; assay type: ADME, organism-based; conditions: in vivo
# Homo sapiens [10] = experiment: Unbound renal clearance in healthy human treated with chlorpromazine at 10 mg, iv bolus dose and 25, 50 and 100 mg, po; assay type: ADME, organism-based, Kidney; conditions: in vivo
# [11] = Systemic clearance in healthy human treated with chlorpromazine at 10 mg, iv bolus dose and 25, 50 and 100 mg, po; assay type: ADME, organism-based; conditions: in vivo
# [12] = Clearance in iv dosed patient with renal impairment; assay type: ADME, organism-based; conditions: human, in vivo
# [13] = Fraction unbound in healthy human at 10 mg, iv bolus dose and 25, 50 and 100 mg, po; assay type: ADME, organism-based; conditions: in vivo
# Homo sapiens [14] = species on record: Homo sapiens; conditions: in vivo
# Homo sapiens [15] = species on record: Homo sapiens; conditions: in vivo; remark: listed apart in the source
# clinical [16] = conditions: human, in vivo, iv
# [17] = Fraction unbound in human; assay type: ADME, organism-based; conditions: in vivo
# [18] = Fraction unbound in human at 120 mg, po; assay type: ADME, organism-based; conditions: in vivo
# [19] = Systemic clearance in human at 120 mg, po; assay type: ADME, organism-based; conditions: in vivo
# Homo sapiens [20] = experiment: Unbound hepatobiliary clearance in human at 120 mg, po; assay type: ADME, organism-based; conditions: in vivo
# clinical [21] = conditions: human, in vivo, po
# [22] = Systemic clearance in human; assay type: ADME, organism-based; conditions: in vivo
# [23] = Systemic clearance in human at 4 mg, po twice daily for 8 days; assay type: ADME, organism-based; conditions: in vivo
# Homo sapiens [24] = experiment: Unbound renal clearance in human at 4 mg, po twice daily for 8 days; assay type: ADME, organism-based, Kidney; conditions: in vivo, 192 h
# Homo sapiens [25] = experiment: Unbound hepatobiliary clearance in human at 4 mg, po twice daily for 8 days; assay type: ADME, organism-based; conditions: in vivo, 192 h
Compound,pKa (physchem),also measured
CNCCN1C(=O)[C@H](OC(C)=O)[C@H](c2ccc(OC)cc2)Sc2ccccc21,–,CL free (Homo sapiens [1]): 25 mL/min/kg
NC(=O)C(c1ccccc1)(c1ccccc1)[C@@H]1CCN(CCc2ccc3c(c2)C(O)CO3)C1 (stereo partly specified),–,CL free (Homo sapiens [2]): 47 mL/min/kg; CL free (Homo sapiens [3]): 60 mL/min/kg
CCOc1cc([C@@H](CS(C)(=O)=O)N2C(=O)c3cccc(NC(C)=O)c3C2=O)ccc1OC,9.8,–
Cc1c(O)cccc1C(=O)N[C@@H](CSc1ccccc1)[C@H](O)CN1C[C@H]2CCCC[C@H]2C[C@H]1C(=O)NC(C)(C)C,8.57,–
CN1CC(=O)N2[C@H](c3ccc4c(c3)OCO4)c3[nH]c4ccccc4c3C[C@@H]2C1=O,9.87,–
COc1cccc(C2(O)CCCCC2CN(C)C)c1 (racemic) [TRAMADOL],10,–
O[C@H](CNC[C@@H](O)[C@H]1CCc2cc(F)ccc2O1)[C@@H]1CCc2cc(F)ccc2O1 (relative stereo),14,–
CC(C)NCC(O)COc1ccc(O)c2ccccc12 (stereo unspecified) [4-HYDROXYPROPRANOLOL SULFATE],–,clearance [4]: 66 mL/min/kg; CL free (Homo sapiens [5]): 248 mL/min/kg; fraction unbound [6]: 0.26; CL free (Homo sapiens [7]): 5 mL/min/kg
CN(C)CCCN1c2ccc(O)cc2Sc2ccc(Cl)cc21 [7-HYDROXYCHLORPROMAZINE],–,CL free (Homo sapiens [8]): 400 mL/min/kg; fraction unbound [9]: 0.015; CL free (Homo sapiens [10]): 6 mL/min/kg; clearance [11]: 6.1 mL/min/kg
Clc1ccc2c(c1)C(N1CCNCC1)=Nc1ccccc1O2 [AMOXAPINE],11.2,–
COc1ccc(-n2nc(C(N)=O)c3c2C(=O)N(c2ccc(N4CCCCC4=O)cc2)CC3)cc1 [APIXABAN],8.56,–
COc1ccc(CCN2CCC(Nc3nc4ccccc4n3Cc3ccc(F)cc3)CC2)cc1 [ASTEMIZOLE],10.1,–
CNCC[C@@H](Oc1ccccc1C)c1ccccc1 [ATOMOXETINE],10.3,–
COc1ccccc1Oc1c(NS(=O)(=O)c2ccc(C(C)(C)C)cc2)nc(-c2ncccn2)nc1OCCO [BOSENTAN],8.36,–
CN(Cc1cc(Br)cc(Br)c1N)C1CCCCC1 [BROMHEXINE],15.1,–
CCc1cccc2cc(C(O)CNC(C)(C)C)oc12 (stereo unspecified) [BUFURALOL],14.3,–
CC(NC(C)(C)C)C(=O)c1cccc(Cl)c1 (stereo unspecified) [BUPROPION],15.4,–
O=C1CC2(CCCC2)CC(=O)N1CCCCN1CCN(c2ncccn2)CC1 [BUSPIRONE],12.5,clearance [12]: 28 mL/min/kg
Cc1ccc(-c2cc(C(F)(F)F)nn2-c2ccc(S(N)(=O)=O)cc2)cc1 [CELECOXIB],14.2,–
COCc1c(C(C)C)nc(C(C)C)c(/C=C/[C@@H](O)C[C@@H](O)CC(=O)O)c1-c1ccc(F)cc1 [CERIVASTATIN],14.4,–
CN(C)CCCN1c2ccccc2Sc2ccc(Cl)cc21 [CHLORPROMAZINE],–,Fu [13]: 0.0013; CL free (Homo sapiens [14]): 14000 mL/min/kg; CL free (Homo sapiens [15]): 1 mL/min/kg; clearance (clinical [16]): 18.3 mL/min/kg

Compound,pKa (physchem),also measured
COc1ccc2c3c1O[C@H]1[C@@H](O)C=C[C@H]4[C@@H](C2)N(C)CC[C@@]341 [CODEINE],9.48,–
NC(=O)C(c1ccccc1)(c1ccccc1)[C@@H]1CCN(CCc2ccc3c(c2)CCO3)C1 [DARIFENACIN],13.5,fraction unbound [17]: 0.02
Clc1ccc2c(c1)CCc1cccnc1C2=C1CCNCC1 [DESLORATADINE],9.27,–
COc1ccc2c(c1)[C@]13CCCC[C@@H]1[C@H](C2)N(C)CC3 [DEXTROMETHORPHAN],10.1,–
COc1ccc([C@@H]2Sc3ccccc3N(CCN(C)C)C(=O)[C@@H]2OC(C)=O)cc1 [DILTIAZEM],–,fraction unbound [18]: 0.25; CL/F [19]: 12 mL/min/kg; CL free (Homo sapiens [20]): 48 mL/min/kg
O=C(O[C@@H]1C[C@@H]2C[C@H]3C[C@H](C1)N2CC3=O)c1c[nH]c2ccccc12 [DOLASETRON],14.6,–
CNCC[C@H](Oc1cccc2ccccc12)c1cccs1 [DULOXETINE],9.97,–
O=C1Nc2ccc(Cl)cc2[C@@](C#CC2CC2)(C(F)(F)F)O1 [EFAVIRENZ],7.18,–
CN1CCN(c2ccccc2/C=C2\SCCN(c3ccc(Cl)c(Cl)c3)C2=O)CC1 [ELZASONAN],11.5,–
COc1ccc(C(=O)Nc2ccccc2CCC2CCCCN2C)cc1 (stereo unspecified) [ENCAINIDE],8.34,–
C#Cc1cccc(Nc2ncnc3cc(OCCOC)c(OCCOC)cc23)c1 [ERLOTINIB],13.9,–
O=C(NCC1CCCCN1)c1cc(OCC(F)(F)F)ccc1OCC(F)(F)F (stereo unspecified) [FLECAINIDE],9.28,–
CC(C)C(=O)Nc1ccc([N+](=O)[O-])c(C(F)(F)F)c1 [FLUTAMIDE],12.9,CL/F (clinical [21]): > 600 mL/min/kg
CN1C2CCCC1CC(NC(=O)c1nn(C)c3ccccc13)C2 (stereo unspecified) [GRANISETRON],8.9,–
CCc1cc2c(cc1CC)CC(NC[C@H](O)c1ccc(O)c3[nH]c(=O)ccc13)C2 [INDACATEROL],14.6,–
CCC(C)n1ncn(-c2ccc(N3CCN(c4ccc(OCC5COC(Cn6cncn6)(c6ccc(Cl)cc6Cl)O5)cc4)CC3)cc2)c1=O (stereo unspecified) [ITRACONAZOLE],15,–
O=C(c1ccc(F)cc1)C1CCN(CCn2c(=O)[nH]c3ccccc3c2=O)CC1 [KETANSERIN],14.1,–
Cc1c(OCC(F)(F)F)ccnc1C[S+]([O-])c1nc2ccccc2[nH]1 (stereo unspecified) [LANSOPRAZOLE],11.2,–
Cc1ncc2n1-c1ccc(Cl)cc1C(c1ccccc1F)=NC2 [MIDAZOLAM],13.6,–
CC(C)(O)c1ccccc1CC[C@@H](SCC1(CC(=O)O)CC1)c1cccc(/C=C/c2ccc3ccc(Cl)cc3n2)c1 [MONTELUKAST],15.9,–
CCn1cc(C(=O)O)c(=O)c2ccc(C)nc21 [NALIDIXIC ACID],13,–

Compound,pKa (physchem),also measured
CCc1nn(CCCN2CCN(c3cccc(Cl)c3)CC2)c(=O)n1CCOc1ccccc1 [NEFAZODONE],13.8,–
CNCCC=C1c2ccccc2CCc2ccccc21 [NORTRIPTYLINE],13.9,–
COc1ccc2[nH]c([S+]([O-])Cc3ncc(C)c(OC)c3C)nc2c1 (stereo unspecified) [OMEPRAZOLE],13.2,–
CC(C)CCC(=O)CC1c2ccccc2C(=O)N1c1ccc2ccc(Cl)nc2n1 (stereo unspecified) [PAGOCLONE],15,–
COc1ccnc(C[S+]([O-])c2nc3ccc(OC(F)F)cc3[nH]2)c1OC (stereo unspecified) [PANTOPRAZOLE],7.69,–
Fc1ccc([C@@H]2CCNC[C@H]2COc2ccc3c(c2)OCO3)cc1 [PAROXETINE],10.3,–
CCc1ccc(CCOc2ccc(CC3SC(=O)NC3=O)cc2)nc1 (stereo unspecified) [PIOGLITAZONE],13.7,–
O=C(C1CCCCC1)N1CC(=O)N2CCc3ccccc3C2C1 (stereo unspecified) [PRAZIQUANTEL],15,–
CC(C)NCC(O)COc1cccc2ccccc12 (stereo unspecified) [PROPRANOLOL],–,fraction unbound [17]: 0.15; clearance [22]: 20 mL/min/kg
OCCOCCN1CCN(C2=Nc3ccccc3Sc3ccccc32)CC1 [QUETIAPINE],11.2,–
COc1ccccc1OCC(O)CN1CCN(CC(=O)Nc2c(C)cccc2C)CC1 (stereo unspecified) [RANOLAZINE],9.59,–
CCOc1cc(CC(=O)N[C@@H](CC(C)C)c2ccccc2N2CCCCC2)ccc1C(=O)O [REPAGLINIDE],14.8,–
CN(CCOc1ccc(CC2SC(=O)NC2=O)cc1)c1ccccn1 (stereo unspecified) [ROSIGLITAZONE],10.3,–
N#CC[C@H](C1CCCC1)n1cc(-c2ncnc3[nH]ccc23)cn1 [RUXOLITINIB],14.9,–
C[C@H](NC(=O)C(C)(C)Oc1ccc(C(F)(F)F)cn1)[C@@H](Cc1ccc(Cl)cc1)c1cccc(C#N)c1 [TARANABANT],15.1,–
CC(C)(C)c1ccc(C(O)CCCN2CCC(C(O)(c3ccccc3)c3ccccc3)CC2)cc1 (stereo unspecified) [TERFENADINE],15,–
C#C[C@]1(O)CC[C@H]2[C@@H]3[C@H](C)CC4=C(CCC(=O)C4)[C@H]3CC[C@@]21C [TIBOLONE],15,–
CCCSc1nc(N[C@@H]2C[C@H]2c2ccc(F)c(F)c2)c2nnn([C@@H]3C[C@H](OCCO)[C@@H](O)[C@H]3O)c2n1 [TICAGRELOR],14.3,–
Cc1ccc(O)c([C@H](CCN(C(C)C)C(C)C)c2ccccc2)c1 [TOLTERODINE],14.7,CL/F [23]: 44 mL/min/kg; CL free (Homo sapiens [24]): 1 mL/min/kg; CL free (Homo sapiens [25]): 1190 mL/min/kg
Cc1onc(-c2ccccc2)c1-c1ccc(S(N)(=O)=O)cc1 [VALDECOXIB],13.1,–

# — ChEMBL document CHEMBL3526022, “Which metabolites circulate?” (Drug Metab Dispos, 2013)
